Among the data in patent US20210246122A1, “Triazine Compounds and Uses Thereof” (Aduro Biotech, Inc., priority 2018, published 2021) are IC50 values, retold here.

This test addresses T1, Human cGAS amino acids 155-522 (Homo sapiens, UniProt Q8N884).
T1 construct: hexahistidine tag (N, cleaved yes); made in house; host or cells: E. coli BL21 DE3 Rosetta 2
Nature of the test: cGAS activity assay (DNA-activated cGAS, remaining ATP measured by Kinase-Glo Max luciferase assay). The class given is biochemical. Particulars: 300 nM purified cGAS, 1 μM dsDNA, 250 μM ATP, 100 μM GTP, 37° C. for 1.25 hours. The procedure: IC50 values were determined as follows:
Human cGAS sequence encoding amino acids 155-522 was cloned into a pET (EMD Millipore) based expression plasmid. The resulting construct contained a tandem N-terminal hexahistidine tag, maltose binding protein fusion followed by a tobacco etch virus protease cleavable linker preceding cGAS amino acids 155-522.
Construct sequence: Amino acids 155-522, Human cGAS
Protein was expressed and purified from E. coli BL21 DE3 Rosetta 2 (EMD Millipore) cells using standard techniques. Cells were grown in 2× yeast extract tryptone medium and expression was initiated via the addition of isopropyl β-D-1-thiogalactopyranoside. Expression proceeded overnight at 18° C. Cells were harvested by centrifugation and subsequently lysed via sonication. Insoluble fraction was removed by centrifugation. Maltose binding protein (MBP) fusion proteins were purified on a dextrin sepharose column (GE Healthcare) and the MBP tag was removed using tobacco etch virus protease overnight during dialysis. Protein was further purified on a heparin column (GE Healthcare) and eluted using a NaCl gradient. Column fraction were pooled and further purified on a Superdex 75 gel filtration column (GE Healthcare). Protein was quantified using 280 nm absorbance. Protein was then flash frozen in liquid nitrogen and stored at −80° C. until use.
Potential antagonists were diluted in 100% dimethyl sulfoxide and added to the reaction. Final dimethyl sulfoxide concentration was 5%. The compounds were tested from 1 μM with either 3- or 4-fold serial dilutions down to 0.000051 or 0.000004 μM respectively.
Two complementary DNA oligos (IDT DNA) were annealed by slow cooling from 95° C. The resulting double stranded DNA was used to activate cGAS.
Reactions were performed at 37° C. for 1.25 hours. Reaction buffer: 20 mM Tris HCl pH 9, 100 mM NaCl, 5 mM MgCl2, 0.1 mg/ml bovine gamma globulin, 250 μM adenosine triphosphate, 100 μM guanosine triphosphate, 0.5 mM Tris(2-carboxyethyl)phosphine hydrochloride, 1 μM double stranded DNA and 300 nM purified cGAS protein.
Reactions were stopped and ATP levels in the reaction were measured using a luciferase based assay. Promega Kinase-Glo Max Assay. Luminescence was measured on a plate reader (Molecular Devices). Values were normalized to control wells lacking compound.
On the technique in general: Kinase-Glo reads ATP consumption through a luciferase reaction.

SMILES strings stand for the structures. A value given as a limit tells only on which side of the number the result lay.

In general, IC50 refers to the concentration that inhibits the measured activity by half. Higher therefore signals weaker potency in that assay.

T1 sequence (Q8N884 157-522): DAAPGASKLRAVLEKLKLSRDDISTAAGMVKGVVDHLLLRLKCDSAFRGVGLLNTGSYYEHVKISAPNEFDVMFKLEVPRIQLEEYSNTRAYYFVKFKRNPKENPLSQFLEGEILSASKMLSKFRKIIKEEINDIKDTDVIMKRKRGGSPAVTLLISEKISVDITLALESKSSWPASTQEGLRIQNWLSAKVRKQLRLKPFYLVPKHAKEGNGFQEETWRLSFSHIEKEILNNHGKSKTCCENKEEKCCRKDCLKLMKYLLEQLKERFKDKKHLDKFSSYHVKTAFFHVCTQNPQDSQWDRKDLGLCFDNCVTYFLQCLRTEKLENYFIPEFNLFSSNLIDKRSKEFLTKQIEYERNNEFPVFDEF

With `CN(C)C(=O)[C@H](Cc1ccc(C#N)cc1)Nc1nc(NCc2nc3cc(F)ccc3[nH]2)nc(Nc2cccc(CN3CCN(C=O)CC3)c2)n1` [TA1016, (S)-3-(4-cyanophenyl)-2-((4-(((5-fluoro-1H-benzo[d]imidazol-2-yl)methyl)amino)-6-((3-((4-formylpiperazin-1-yl)methyl)phenyl)amino)-1,3,5-triazin-2-yl)amino)-N,N-dimethylpropanamide], the IC50 lay in the range of 20 to 250 µM.

`COCCNC(=O)[C@H](Cc1ccc(C#N)cc1)Nc1nc(NCc2nc3cc(F)ccc3[nH]2)nc(Nc2cccc(CN3CCNCC3)c2)n1` [TA1017, (S)-3-(4-cyanophenyl)-2-((4-(((5-fluoro-1H-benzo[d]imidazol-2-yl)methyl)amino)-6-((3-(piperazin-1-ylmethyl)phenyl)amino)-1,3,5-triazin-2-yl)amino)-N-(2-methoxyethyl)propanamide] returned an IC50 of over 250 µM.

For the molecule `COC(=O)[C@@H](Cc1ccc(C#N)cc1)Nc1nc(NCc2nc3cc(F)ccc3[nH]2)nc(Nc2cccc(CN3CCNCC3)c2)n1` [TA1019, methyl (R)-3-(4-cyanophenyl)-2-((4-(((5-fluoro-1H-benzo[d]imidazol-2-yl)methyl)amino)-6-((3-(piperazin-1-ylmethyl)phenyl)amino)-1,3,5-triazin-2-yl)amino)propanoate], the IC50 is over 250 µM. As to `CNC(=O)[C@H](Cc1ccc(C#N)cc1)Nc1nc(NCc2nc3cc(F)ccc3[nH]2)nc(Nc2cccc(CN3CCNCC3)c2)n1` [TA1022, (S)-3-(4-cyanophenyl)-2-((4-(((5-fluoro-1H-benzo[d]imidazol-2-yl)methyl)amino)-6-((3-(piperazin-1-ylmethyl)phenyl)amino)-1,3,5-triazin-2-yl)amino)-N-methylpropanamide], the IC50 was over 250 µM. For the molecule `COCCOCCNC(=O)[C@H](Cc1ccc(C#N)cc1)Nc1nc(NCc2nc3cc(F)ccc3[nH]2)nc(Nc2cccc(CN3CCNCC3)c2)n1` [TA1023, (S)-3-(4-cyanophenyl)-2-((4-(((5-fluoro-1H-benzo[d]imidazol-2-yl)methyl)amino)-6-((3-(piperazin-1-ylmethyl)phenyl)amino)-1,3,5-triazin-2-yl)amino)-N-(2-(2-methoxyethoxy)ethyl)propanamide], the IC50 was over 250 µM.

For the molecule `COC(=O)[C@H](Cc1ccc(C#N)cc1)Nc1ncnc(Nc2cccc(CN3CCN(C(=O)c4nccnc4O)CC3)c2)n1` [TA1026, methyl (S)-3-(4-cyanophenyl)-2-((4-((3-((4-(3-hydroxypyrazine-2-carbonyl)piperazin-1-yl)methyl)phenyl)amino)-1,3,5-triazin-2-yl)amino)propanoate], the half-inhibitory concentration (IC50) was over 250 µM. In the case of `COC(=O)[C@H](Cc1ccc(C#N)cc1)Nc1nc(Nc2cccc(CN3CCNCC3)c2)nc(OC)n1` [TA1028, methyl (S)-3-(4-cyanophenyl)-2-((4-methoxy-6-((3-(piperazin-1-ylmethyl)phenyl)amino)-1,3,5-triazin-2-yl)amino)propanoate], the IC50 was over 250 µM. `COCCOCCNC(=O)[C@H](Cc1ccc(C#N)cc1)Nc1nc(NCc2nc3cc(F)ccc3[nH]2)nc(Nc2cccc(CN3CCN(C(=O)c4nccnc4OC)CC3)c2)n1` [TA1029, (S)-3-(4-cyanophenyl)-2-((4-(((5-fluoro-1H-benzo[d]imidazol-2-yl)methyl)amino)-6-((3-((4-(3-methoxypyrazine-2-carbonyl)piperazin-1-yl)methyl)phenyl)amino)-1,3,5-triazin-2-yl)amino)-N-(2-(2-methoxyethoxy)ethyl)propanamide] displayed an IC50 of over 250 µM. `CNC(=O)[C@H](Cc1ccc(C#N)cc1)Nc1nc(NCc2nc3cc(F)ccc3[nH]2)nc(Nc2cccc(CN3CCN(C=O)CC3)c2)n1` [TA1030, (S)-3-(4-cyanophenyl)-2-((4-(((5-fluoro-1H-benzo[d]imidazol-2-yl)methyl)amino)-6-((3-((4-formylpiperazin-1-yl)methyl)phenyl)amino)-1,3,5-triazin-2-yl)amino)-N-methylpropanamide] came in with an IC50 of over 250 µM. Take `COCCNc1nc(Nc2cccc(CN3CCNCC3)c2)nc(N[C@@H](Cc2ccc(C#N)cc2)C(=O)OC)n1` [TA1031, methyl (S)-3-(4-cyanophenyl)-2-((4-((2-methoxyethyl)amino)-6-((3-(piperazin-1-ylmethyl)phenyl)amino)-1,3,5-triazin-2-yl)amino)propanoate]: the concentration for half-maximal inhibition (IC50) was over 250 µM. `COC(=O)[C@H](Cc1ccc(C#N)cc1)Nc1nc(NCc2nccn2C)nc(Nc2cccc(CN3CCNCC3)c2)n1` [TA1032, methyl (S)-3-(4-cyanophenyl)-2-((4-(((1-methyl-1H-imidazol-2-yl)methyl)amino)-6-((3-(piperazin-1-ylmethyl)phenyl)amino)-1,3,5-triazin-2-yl)amino)propanoate] returned an IC50 of over 250 µM. Take `COCCNc1nc(Nc2cccc(CN3CCN(C(=O)c4nccnc4O)CC3)c2)nc(N[C@@H](Cc2ccc(C#N)cc2)C(=O)OC)n1` [TA1033, methyl (S)-3-(4-cyanophenyl)-2-((4-((3-((4-(3-hydroxypyrazine-2-carbonyl)piperazin-1-yl)methyl)phenyl)amino)-6-((2-methoxyethyl)amino)-1,3,5-triazin-2-yl)amino)propanoate]: the IC50 is over 250 µM. Molecule `COC(=O)[C@H](Cc1ccc(C#N)cc1)Nc1nc(NCc2nccn2C)nc(Nc2cccc(CN3CCN(C(=O)c4nccnc4O)CC3)c2)n1` [TA1034, methyl (S)-3-(4-cyanophenyl)-2-((4-((3-((4-(3-hydroxypyrazine-2-carbonyl)piperazin-1-yl)methyl)phenyl)amino)-6-(((1-methyl-1H-imidazol-2-yl)methyl)amino)-1,3,5-triazin-2-yl)amino)propanoate] came in with an IC50 of over 250 µM. To `CNc1nc(Nc2cccc(CN3CCN(C(=O)c4nccnc4O)CC3)c2)nc(N[C@@H](Cc2ccc(C#N)cc2)C(=O)OC)n1` [TA1035, methyl (S)-3-(4-cyanophenyl)-2-((4-((3-((4-(3-hydroxypyrazine-2-carbonyl)piperazin-1-yl)methyl)phenyl)amino)-6-(methylamino)-1,3,5-triazin-2-yl)amino)propanoate] belongs over 250 µM. The molecule `CN(C)C(=O)[C@H](Cc1ccc(C#N)cc1)Nc1nc(NCc2nc3cc(F)ccc3[nH]2)nc(Nc2cccc(CN3CCN(C(=O)OC(C)(C)C)CC3)c2)n1` [TA1036, tert-butyl (S)-4-(3-((4-((3-(4-cyanophenyl)-1-(dimethylamino)-1-oxopropan-2-yl)amino)-6-(((5-fluoro-1H-benzo[d]imidazol-2-yl)methyl)amino)-1,3,5-triazin-2-yl)amino)benzyl)piperazine-1-carboxylate] gave an IC50 of over 250 µM. For the molecule `COC(=O)[C@H](Cc1ccc(C#N)cc1)Nc1nc(NCc2ccccc2)nc(Nc2cccc(CN3CCNCC3)c2)n1` [TA1049, methyl (S)-2-((4-(benzylamino)-6-((3-(piperazin-1-ylmethyl)phenyl)amino)-1,3,5-triazin-2-yl)amino)-3-(4-cyanophenyl)propanoate], the IC50 is over 250 µM.

`COC(=O)[C@H](Cc1ccc(C#N)cc1)Nc1nc(NCc2ccccc2)nc(Nc2cccc(CN3CCN(C(=O)c4nccnc4O)CC3)c2)n1` [TA1050, methyl (S)-2-((4-(benzylamino)-6-((3-((4-(3-hydroxypyrazine-2-carbonyl)piperazin-1-yl)methyl)phenyl)amino)-1,3,5-triazin-2-yl)amino)-3-(4-cyanophenyl)propanoate] returned an IC50 of 20 to 250 µM. As to `COC(=O)[C@H](Cc1ccc(C#N)cc1)Nc1nc(Nc2cccc(CN3CCNCC3)c2)nc(N(C)CCc2nc3ccc(OC)cc3[nH]2)n1` [TA1052, methyl (S)-3-(4-cyanophenyl)-2-((4-((2-(6-methoxy-1H-benzo[d]imidazol-2-yl)ethyl)(methyl)amino)-6-((3-(piperazin-d-ylmethyl)phenyl)amino)-1,3,5-triazin-2-yl)amino)propanoate], the IC50 lay within 20 to 250 µM. In turn, `COC(=O)[C@H](Cc1ccc(C#N)cc1)Nc1nc(Nc2cccc(CN3CCN(C(=O)c4cnccn4)CC3)c2)nc(N(C)CCc2nc3ccc(OC)cc3[nH]2)n1` [TA1054, methyl (S)-3-(4-cyanophenyl)-2-((4-((2-(6-methoxy-1H-benzo[d]imidazol-2-yl)ethyl)(methyl)amino)-6-((3-((4-(pyrazine-2-carbonyl)piperazin-1-yl)methyl)phenyl)amino)-1,3,5-triazin-2-yl)amino)propanoate] displayed an IC50 of over 250 µM.
